We go through 29 compounds from article doi:10.1101/2021.10.07.463234v2 (biorxiv, 2021).

Structures can show the parent of a compound that is named as a salt.

The first assay has as its target SARS-CoV-2 Mac1 (Severe acute respiratory syndrome coronavirus 2, UniProt P0DTD1). In words: biochemical. To be noted: 100 µM; inhibitor.
Broadly, the %inhibition is the relative decrease from the control value, in per cent. Low values mean little suppression, high ones strong suppression. Take `CCN(CCO)CCCC(C)Nc1ccnc2cc(Cl)ccc12` (centres unmarked) [Hydroxychloroquine Sulfate]: the “%inhibition” value amounted to 0%. On the same count and under the same terms, to `CCc1cc2c(cc1CC)CC(NC[C@H](O)c1ccc(O)c3[nH]c(=O)ccc13)C2` [Indacaterol Maleate] belongs 2.994%.

Staying with this assay, now noted: read-out: %inhibition.
Usually inhibition stands for the relative decrease from the control value, in per cent. As to `Oc1ccc(O)cc1` [Hydroquinone], the inhibition at 100 µM was found to be 7.86%.

With `CC(O)c1ccc(S(=O)(=O)NC(=O)NC2CCCCC2)cc1` (centres unmarked) [Hydroxyhexamide], the inhibition at 100 µM was determined as 28%. Consider `CCCCCC(=O)O[C@]1(C(C)=O)CC[C@H]2[C@@H]3CCC4=CC(=O)CC[C@]4(C)[C@H]3CC[C@@]21C` [Hydroxyprogesterone caproate], for which the inhibition at 100 µM is 8.48%.

As to `NC(=O)NO` [Hydroxyurea], the inhibition at 100 µM came to 20.8%. Still for that read-out and setting: the figure for `OCCOCCN1CCN(C(c2ccccc2)c2ccc(Cl)cc2)CC1` (centres unmarked) [Hydroxyzine 2HCl] is 11.4%; for `CN[C@H]1C[C@@H](N)[C@H](O)[C@@H](O[C@@H]2O[C@H](CO)[C@H](O)[C@@H]3OC4(O[C@H]23)O[C@H]([C@@H](N)CO)[C@H](O)[C@H](O)[C@H]4O)[C@@H]1O` (some centres unmarked) [Hygromycin B] it is 0%; for `CCCCCN(C)CCC(O)(P(=O)(O)O)P(=O)(O)O` [Ibandronate sodium] it is 4.37%.

Take `C=CC(=O)N1CCC[C@@H](n2nc(-c3ccc(Oc4ccccc4)cc3)c3c(N)ncnc32)C1` [Ibrutinib (PCI-32765)]: the inhibition at 100 µM amounted to 6.43%.

`CC(C)C(=O)c1c(C(C)C)nn2ccccc12` [Ibudilast]: the inhibition at 100 µM stood at 0%. Consider `CC(C)Cc1ccc(C(C)C(=O)O)cc1` (centres unmarked) [Ibuprofen], for which the inhibition at 100 µM is 0%. Turning to `CCCCCCCN(CC)CCCC(O)c1ccc(NS(C)(=O)=O)cc1` (centres unmarked) [Ibutilide Fumarate], the inhibition at 100 µM came to 0%. Still for that read-out and setting: to `C#Cc1cccc(Nc2ncnc3cc4c(cc23)OCCOCCOCCO4)c1` [Icotinib] belongs 15.2%; to `COc1cc(C(=O)O)ccc1NC(=O)[C@@H]1N[C@@H](CC(C)(C)C)[C@](C#N)(c2ccc(Cl)cc2F)[C@H]1c1cccc(Cl)c1F` [Idasanutlin (RG-7388)], 0%; to `COC1=C(OC)C(=O)C(CCCCCCCCCCO)=C(C)C1=O` [Idebenone], 7.11%.

As for `CC[C@H](Nc1ncnc2[nH]cnc12)c1nc2cccc(F)c2c(=O)n1-c1ccccc1` [Idelalisib (CAL-101, GS-1101)], the inhibition at 100 µM turned out to be 0%. For `O=c1[nH]c(=O)n([C@H]2C[C@H](O)[C@@H](CO)O2)cc1I` [Idoxuridine], the inhibition at 100 µM was found to be 44.1%. With `O=C1C2CC3CC1CC(O)(C3)C2` [Idramantone], the inhibition at 100 µM amounted to 3.83%. For the compound `CC(C(O)c1ccc(O)cc1)N1CCC(Cc2ccccc2)CC1` (centres unmarked) [Ifenprodil Tartrate], the inhibition at 100 µM was 34.6%. In the case of `O=P1(NCCCl)OCCCN1CCCl` (centres unmarked) [Ifosfamide], the inhibition at 100 µM came out at 10.6%.

`CS(=O)(=O)Nc1cc2occ(NC=O)c(=O)c2cc1Oc1ccccc1` [Iguratimod]: the inhibition at 100 µM was 4.14%.

As to `CNC(=O)[C@H](Cc1c[nH]c2ccccc12)NC(=O)[C@@H](CC(=O)NO)CC(C)C` [Ilomastat (GM6001, Galardin)], the inhibition at 100 µM came to 21%. The same measure, in the same setting: to `COc1cc(C(C)=O)ccc1OCCCN1CCC(c2noc3cc(F)ccc23)CC1` [Iloperidone] belongs 0%; to `Cc1nccn1CCC(C(N)=O)(c1ccccc1)c1ccccc1` [Imidafenacin], 8.33%; to `CCOC(=O)[C@H](CCc1ccccc1)N[C@@H](C)C(=O)N1C(=O)N(C)C[C@H]1C(=O)O` [Imidapril HCl], 0%. Consider `C[C@@H](O)[C@H]1C(=O)N2C(C(=O)O)=C(SCCNC=N)C[C@H]12` [Imipenem], for which the inhibition at 100 µM amounted to 9.79%. In the case of `CN(C)CCCN1c2ccccc2CCc2ccccc21` [Imipramine HCl], the inhibition at 100 µM came to 2.2%. In the case of `CC(C)Cn1cnc2c(N)nc3ccccc3c21` [Imiquimod], the inhibition at 100 µM is 26.3%.
